{"source": "patent US20210137948A1", "about": "“TREATMENT OF INFECTIONS CAUSED BY NEISSERIA GONOCOCCUS USING A HALOGENATED SALICYLANILIDE” (priority 2018, published 2021)", "key": {"[1]": {"system": "Pseudomonas aeruginosa", "assay": "Broth microdilution MIC testing", "assay_type": "cell-based", "conditions": "Pseudomonas aeruginosa MMX 103/ATCC 27853, susceptible, QC; for MIC: ATCC27853, read-out: Minimal Inhibitory Concentration", "experimental": "(§1) Broth microdilution assay: Mueller Hinton II broth (MHB II, BBL, BD, catalog no. 212322; lot no. 5257869) was used for testing most aerobes.\n(§2) MIC values were determined using a broth microdilution procedure described by CLSI, see reference (1). Automated liquid handlers (Multidrop 384, Labsystems, Helsinki, Finland; Biomek 2000 and Biomek FX, Beckman Coulter, Fullerton Calif.) were used to conduct serial dilutions and liquid transfers.\n(§3) The wells in Columns 2 through 12 of two standard 96-well microdilution plates (Costar 3795, Corning Inc., Corning, N.Y.) were filled with 150 μL of diluent specific to the compound tested. Three hundred microliters of each comparator and investigational drug solution (40× or 100×) was added to one well in Column 1 of the plates. The Biomek 2000 was used to complete the serial transfers through Column 11. The wells of Column 12 contained no drug and were the organism growth control wells. These panels were the “mother plates.”\n(§4) Because drugs were prepared at either 40× or 100×, the “daughter plates” were loaded with 185-188 μL of the appropriate test media for the tested organism, using the Multidrop 384 or by hand. The daughter plates were prepared on the Biomek FX instrument, which transferred 2-5 μL of drug solution from each well of a mother plate to the corresponding well of each daughter plate in a single step. The wells of the daughter plates ultimately contained 185-188 μL of broth appropriate to the organism, 2-5 μL of drug solution, and 10 μL of bacterial inoculum prepared in broth.\n(§5) Standardized inoculum of each organism was prepared per CLSI methods, see reference (1). The inoculum for each organism was dispensed into sterile reservoirs divided by length (Beckman Coulter), and the Biomek 2000 was used to inoculate the plates. Daughter plates were placed on the Biomek 2000 work surface in reverse orientation so that inoculation took place from low to high drug concentration. The Biomek 2000 delivered 10 μL of standardized inoculum into each well. This yielded a final cell density in the daughter plates of approximately 5×10^5 CFU/mL.\n(§6) Plates were stacked 3 high, covered with a lid on the top plate, placed in plastic bags, and incubated at 35° C. for approximately 18 to 20 hr. Following incubation, the microplates were removed from the incubator and viewed from the bottom using a plate viewer. […] The MIC was read and recorded as the lowest concentration of drug that inhibited visible growth of the organism."}, "[2]": {"system": "Enterobacter cloacae", "assay": "Broth microdilution MIC testing", "assay_type": "cell-based", "conditions": "Enterobacter cloacae MMX 6089, susceptible; for MIC: read-out: Minimal Inhibitory Concentration", "experimental": "as §1, §2, §3, §4, §5, §6"}, "[3]": {"system": "Klebsiella pneumoniae", "assay": "Broth microdilution MIC testing", "assay_type": "cell-based", "conditions": "Klebsiella pneumoniae MMX 214/ATCC 13883, susceptible; for MIC: ATCC13883, read-out: Minimal Inhibitory Concentration", "experimental": "as §1, §2, §3, §4, §5, §6"}, "[4]": {"system": "Stenotrophomonas maltophila", "assay": "Broth microdilution MIC testing", "assay_type": "cell-based", "conditions": "Stenotrophomonas maltophila MMX 4746, susceptible; for MIC: Stenotrophomonas sp. LMG 10879, read-out: Minimal Inhibitory Concentration", "experimental": "as §1, §2, §3, §4, §5, §6"}, "[5]": {"system": "Escherichia coli", "assay": "Broth microdilution MIC testing", "assay_type": "cell-based", "conditions": "for MIC: Escherichia coli, read-out: Minimal Inhibitory Concentration", "experimental": "as §1, §2, §3, §4, §5, §6"}, "[6]": {"system": "Acinetobacter baumannii", "assay": "Broth microdilution MIC testing", "assay_type": "cell-based", "conditions": "Acinetobacter baumannii MMX 1630/ATCC 19606, susceptible; for MIC: ATCC19606, read-out: Minimal Inhibitory Concentration", "experimental": "as §1, §2, §3, §4, §5, §6"}, "[7]": {"system": "Escherichia coli", "conditions": "Escherichia coli MMX 102/ATCC 25922, range in parentheses; cited from earlier work"}, "[8]": {"system": "Pseudomonas aeruginosa", "conditions": "Pseudomonas aeruginosa MMX 103/ATCC 27853, range in parentheses; cited from earlier work"}, "[9]": {"system": "N. gonorrhoeae ATCC49226/MMX 683", "assay": "Agar dilution MIC assay (Example 1)", "assay_type": "cell-based, Neisseria gonorrhoeae", "conditions": "Neisseria gonorrhoeae MMX 683/ATCC 49226, QC", "experimental": "Neisseria gonococcus (N. gonorrhoeae) were assayed using a reference agar dilution method, see reference (2). Drug dilutions and drug-supplemented agar plates were prepared manually. Neisseria gonococcus was grown on Chocolate agar in a CO2 incubator overnight at 35° C. prior to assay. […] The MIC was read per CLSI guidelines, see reference (3)."}, "[10]": {"conditions": "Escherichia coli MMX 102/ATCC 25922, QC strain"}}, "note": "Read-outs that look alike come from different tables or passages of the source."}
{"smiles": "CC(C)(O/N=C(\\C(=O)N[C@@H]1C(=O)N2C(C(=O)[O-])=C(C[n+]3ccccc3)CS[C@H]12)c1csc(N)n1)C(=O)O", "note": "[Ceftazidime]", "values": [{"measurement": "MIC", "setting": "[1]", "value": 1, "unit": "µg/mL"}, {"measurement": "MIC", "setting": "[2]", "value": 8, "unit": "µg/mL"}, {"measurement": "MIC", "setting": "[3]", "value": 0.5, "unit": "µg/mL"}, {"measurement": "MIC", "setting": "[4]", "value": 4, "unit": "µg/mL"}, {"measurement": "MIC", "setting": "[5]; ATCC25922", "value": 0.25, "unit": "µg/mL"}, {"measurement": "MIC", "setting": "[5]", "value": 0.12, "unit": "µg/mL"}, {"measurement": "MIC", "setting": "[6]", "value": 4, "unit": "µg/mL"}, {"measurement": "CLSI QC range of MIC", "setting": "[7]", "value": "(0.06-0.5) μg/ml"}, {"measurement": "CLSI QC range of MIC", "setting": "[8]", "value": "(1-4) μg/ml"}]}
{"smiles": "C[C@H]1c2cccc(O)c2C(=O)C2=C(O)[C@]3(O)C(=O)C(C(N)=O)=C(O)[C@@H](N(C)C)[C@@H]3[C@@H](O)[C@@H]21", "note": "[Doxycycline]", "values": [{"measurement": "MIC", "setting": "[1]", "value": "> 8", "unit": "µg/mL"}, {"measurement": "MIC", "setting": "[2]", "value": 1, "unit": "µg/mL"}, {"measurement": "MIC", "setting": "[3]", "value": 1, "unit": "µg/mL"}, {"measurement": "Minimal Inhibitory Concentration", "setting": "[4]", "value": 0.5, "unit": "µg/mL"}, {"measurement": "MIC", "setting": "[4]", "value": 0.5, "unit": "µg/mL"}, {"measurement": "MIC", "setting": "[5]; ATCC25922", "value": 0.5, "unit": "µg/mL"}, {"measurement": "MIC", "setting": "[5]", "value": 0.25, "unit": "µg/mL"}, {"measurement": "MIC", "setting": "[6]", "value": 0.5, "unit": "µg/mL"}, {"measurement": "Minimal Inhibitory Concentration", "setting": "[6]", "value": 0.5, "unit": "µg/mL"}]}
{"smiles": "NCC[C@H](O)C(=O)N[C@@H]1C[C@H](N)[C@@H](O[C@H]2O[C@H](CN)[C@@H](O)[C@H](O)[C@H]2O)[C@H](O)[C@H]1O[C@H]1O[C@H](CO)[C@@H](O)[C@H](N)[C@H]1O", "note": "[Amikacin]", "values": [{"measurement": "MIC", "setting": "[1]", "value": 2, "unit": "µg/mL"}, {"measurement": "MIC", "setting": "[2]", "value": 1, "unit": "µg/mL"}, {"measurement": "MIC", "setting": "[3]", "value": 0.5, "unit": "µg/mL"}, {"measurement": "MIC", "setting": "[4]", "value": 2, "unit": "µg/mL"}, {"measurement": "MIC", "setting": "[5]; ATCC25922", "value": 4, "unit": "µg/mL"}, {"measurement": "MIC", "setting": "[5]", "value": 0.5, "unit": "µg/mL"}, {"measurement": "MIC", "setting": "[6]", "value": 16, "unit": "µg/mL"}, {"measurement": "CLSI QC range of MIC", "setting": "[7]", "value": "(0.5-4) μg/ml"}, {"measurement": "CLSI QC range of MIC", "setting": "[8]", "value": "(1-4) μg/ml"}]}
{"smiles": "CC1=C(C(=O)O)N2C(=O)[C@@H](NC(=O)[C@H](N)c3ccccc3)[C@H]2SC1", "note": "[Cephalexin]", "values": [{"measurement": "MIC", "setting": "[1]", "value": "> 32", "unit": "µg/mL"}, {"measurement": "MIC", "setting": "[2]", "value": "> 32", "unit": "µg/mL"}, {"measurement": "MIC", "setting": "[3]", "value": 4, "unit": "µg/mL"}, {"measurement": "MIC", "setting": "[4]", "value": "> 32", "unit": "µg/mL"}, {"measurement": "MIC", "setting": "[5]; ATCC25922", "value": 8, "unit": "µg/mL"}, {"measurement": "MIC", "setting": "[5]", "value": 8, "unit": "µg/mL"}, {"measurement": "MIC", "setting": "[6]", "value": "> 32", "unit": "µg/mL"}]}
{"smiles": "C[C@H]1COc2c(N3CCN(C)CC3)c(F)cc3c(=O)c(C(=O)O)cn1c23", "note": "[Levofloxacin]", "values": [{"measurement": "MIC", "setting": "[1]", "value": 1, "unit": "µg/mL"}, {"measurement": "Minimal Inhibitory Concentration", "setting": "[2]", "value": 0.03, "unit": "µg/mL"}, {"measurement": "MIC", "setting": "[2]", "value": 0.03, "unit": "µg/mL"}, {"measurement": "MIC", "setting": "[3]", "value": 0.03, "unit": "µg/mL"}, {"measurement": "Minimal Inhibitory Concentration", "setting": "[3]", "value": 0.03, "unit": "µg/mL"}, {"measurement": "Minimal Inhibitory Concentration", "setting": "[4]", "value": 0.5, "unit": "µg/mL"}, {"measurement": "MIC", "setting": "[4]", "value": 0.5, "unit": "µg/mL"}, {"measurement": "Minimal Inhibitory Concentration", "setting": "[5]; [10]", "value": 0.015, "unit": "µg/mL"}, {"measurement": "MIC", "setting": "[5]; ATCC25922", "value": 0.015, "unit": "µg/mL"}, {"measurement": "MIC", "setting": "[6]", "value": 0.5, "unit": "µg/mL"}, {"measurement": "Minimal Inhibitory Concentration", "setting": "[6]", "value": 0.5, "unit": "µg/mL"}]}
{"smiles": "C[C@@H](O)[C@H]1C(=O)N2C(C(=O)O)=C(S[C@@H]3CN[C@H](C(=O)N(C)C)C3)[C@H](C)[C@H]12", "note": "[Meropenem]", "values": [{"measurement": "MIC", "setting": "[1]", "value": 0.25, "unit": "µg/mL"}, {"measurement": "Minimal Inhibitory Concentration", "setting": "[1]", "value": 0.25, "unit": "µg/mL"}, {"measurement": "MIC", "setting": "[2]", "value": 0.06, "unit": "µg/mL"}, {"measurement": "MIC", "setting": "[3]", "value": 0.03, "unit": "µg/mL"}, {"measurement": "Minimal Inhibitory Concentration", "setting": "[3]", "value": 0.03, "unit": "µg/mL"}, {"measurement": "MIC", "setting": "[4]", "value": 2, "unit": "µg/mL"}, {"measurement": "Minimal Inhibitory Concentration", "setting": "[5]; [10]", "value": 0.015, "unit": "µg/mL"}, {"measurement": "Minimal Inhibitory Concentration", "setting": "[5]; Escherichia coli MMX 120, acrAB efflux pump knockout", "value": 0.015, "unit": "µg/mL"}, {"measurement": "MIC", "setting": "[5]; ATCC25922", "value": 0.015, "unit": "µg/mL"}, {"measurement": "MIC", "setting": "[5]", "value": 0.015, "unit": "µg/mL"}, {"measurement": "MIC", "setting": "[6]", "value": 1, "unit": "µg/mL"}, {"measurement": "CLSI QC range of MIC", "setting": "[7]", "value": "(0.008-0.06) μg/ml"}, {"measurement": "CLSI QC range of MIC", "setting": "[8]", "value": "(0.12-1) μg/ml"}]}
{"smiles": "O=C(O)c1cn(C2CC2)c2cc(N3CCNCC3)c(F)cc2c1=O", "note": "[Ciprofloxacin]", "values": [{"measurement": "MIC", "setting": "[9]; ATCC49226, read-out: Minimal Inhibitory Concentration", "value": 0.004, "unit": "µg/mL"}, {"measurement": "Minimal Inhibitory Concentration", "setting": "[9]", "value": 0.004, "unit": "µg/mL"}]}
